Assay results reported in patent US4254285A, “1-Hydroxymethyl-1-1-oxo prostane derivatives of the E and F series” (American Cyanamid Company, priority 1979, dated 1981).
Like-named read-outs stand apart in the source and are kept apart here.

Tests used:
[1] = tested on: bronchospasms elicited by acetylcholine; experiment: Bronchodilator Activity (Konzett Assay), acetylcholine; format: in vivo; conditions: guinea pig, intravenous, spasmogen acetylcholine, three logarithmic cumulative doses
Procedure: (§1) The bronchodilator activity of some of the PGE compounds of this invention is determined in guinea pigs against bronchospasms elicited by intravenous injections of 5-hydroxytryptamine, histamine or acetylcholine by the Konzett procedure. [See J. Lulling, P. Lievens, F. El Sayed and J. Prignot, Arzneimittel-Forschung, 18, 995 (1968)].
(§2) In the Table B which follows, bronchodilator activity for representative compounds of this invention against one or more of the three spasmogenic agents is expressed as an ED50 determined from the results obtained with three logarithmic cumulative intravenous doses.

[2] = tested on: bronchospasms elicited by histamine; experiment: Bronchodilator Activity (Konzett Assay), histamine; format: in vivo; conditions: guinea pig, intravenous, spasmogen histamine, three logarithmic cumulative doses
Procedure: as §1, §2

[3] = tested on: continuous respiratory spasm induced by pilocarpine; experiment: Bronchodilator Activity (Pilocarpine Assay); format: in vivo; conditions: dog, aerosol, 3.2 mg/ml; for inhibition at 3200 µg/mL: Canis lupus familiaris, inhaled or nasal
Procedure: The PGE compounds of this invention also have bronchodilator activity as determined in a test using dogs anesthetized, artificially ventilated and submitted to a continuous respiratory spasm induced by pilocarpine. Mongrel dogs of either sex weighing between 5 and 10 kg are used. They are premedicated with morphine HCl by subcutaneous injection at 1.5 mg/Kg. An intravenous perfusion of 5% (W/V) chloralose is started 1/2 hour after the morphine injection in such a way that 60 mg/Kg are administered within 15 minutes. After completion, a continuous perfusion of 10 mg/Kg hour is maintained throughout the experiment. The dogs are artificially ventilated by means of a Starling pump at a rate of 20 breaths/minute. The volume is adjusted according to the weight of the animal. [Kleinman and Radford, J. Appl. Physiol., 19, 360 (1964)]. All the measurements are made with the dogs positioned supine in a heated, V-shaped table. Curarization is obtained by succinylcholine chloride using a starting injection of 3 mg/Kg lasting 3 minutes, followed by a continuous perfusion of 0.1 mg/Kg/minute. The respiratory spasm is induced by a starting injection of 400 mcg/Kg of pilocarpine HCl lasting 5 minutes. An increase or decrease in the dose of pilocarpine HCl may occur as a function of the observed effect on airway's resistance. A 15 minute delay is observed before the start of a continuous perfusion of pilocarpine HCl at a dose of 4 mcg/Kg/minute to maintain a constant spasm during the test. A metallic cannula is inserted and fixed, after tracheotomy, into the upper part of the trachea. The two cephalic veins and the two femoral veins are catheterized to inject the various agents. The femoral artery is catheterized to measure the systemic blood pressure. An esophageal balloon (11 cm×2.5 cm) is inserted into the lower third of the oesophagus to measure the endothoracic pressure. The measurement of air flow is made with a […] pneumotachograph connected to the tracheal tube. The transpulmonary pressure is measured as follows: The tracheal cannula is equipped with a stainless steel axial tube (1.5 mm) which is closed at its distal end and projected 2.5 cm beyond the end of the cannula. Three holes with a diameter of one mm are pierced on this latter segment. This tube, which is used to measure the tracheal pressure, is connected to one of the two chambers of a Sanborn 267 B/C differential transducer. The other chamber is connected to the esophageal balloon by means of a polyethylene catheter of the same length and characteristics as the balloon's. The airway's resistance, expressed in cm of water/liter/second, is measured by subtracting from the electrical equivalent of the transpulmonary pressure, a voltage proportional to the flow so as to synchronize the pressure and volume signals on the oscilloscope [Mead and Whittenberger, J. Appl. Physiol, 5, 779 (1953)]. The test compounds are administered by an Aerosol® route. The micronebulizer of a Bird Mark 7 respirator is fitted on the metallic cannula just after the pneumotachograph. The "puff" of the test compound, in Aerosol® is driven by a 2 Kg/cm^2 pressure, allowed into the micronebulizer just during one inspiration cycle. The micronebulizer is fitted on the respiratory tube only during the "puff". It is weighed just before and just after administration to determine the amount of test compound administered.

[4] = tested on: bronchospasms elicited by 5-hydroxytryptamine; experiment: Bronchodilator Activity (Konzett Assay), 5-hydroxytryptamine; format: in vivo; conditions: guinea pig, intravenous, spasmogen 5-hydroxytryptamine, three logarithmic cumulative doses
Procedure: as §1, §2

[5] = tested on: platelet aggregation induced by collagen; experiment: Inhibition of platelet aggregation in vitro, collagen; format: cell-based; conditions: 0.025 mg/ml, human plasma
Excerpt: (§3) It is well known that platelet aggregation inhibitors may be useful as anti-thrombotic drugs. Inhibition of platelet aggregation can be conveniently measured in vitro by monitoring changes in optical density and/or light transmission in platelet rich plasma upon addition of suitable aggregating agents such as adenosine diphosphate, epinephrine, thrombin or collagen. Alternatively, platelet aggregation can be measured in vitro using platelet rich plasma obtained at various time intervals from animals given inhibitors by an oral or parenteral route.
(§4) […] is incubated with modified Tyrode's solution in a proportion of 40-50% human protein rich plasma. The test compounds are added at varying concentrations and after 5 minutes incubation, an aggregating agent such as adenosine diphosphate or collagen is added. The change in optical density (light transmission) is monitored by eye and inhibition is recorded as a (-) or lack of inhibition is recorded as a (+). Test compounds are considered active if they inhibit adenosine diphosphate or collagen induced aggregation at a concentration of 0.025 mg/ml or less within 5-10 minutes.

[6] = tested on: platelet aggregation induced by adenosine diphosphate; experiment: Inhibition of platelet aggregation in vitro, adenosine diphosphate; format: cell-based; conditions: 0.025 mg/ml, human plasma
Excerpt: as §3, §4

[7] = format: in vivo, rat; conditions: indomethacin-only treatment, 10 mg/kg subcut.
Procedure: (§5) Male Wistar rats (Royal Hart, New Hampton, N.Y.), weighing 190-210 g are distributed among control and treatment groups (5 rats/group) and housed one rat per cage. During the 52 hour test period, the rats are permitted free access to food and drinking water for the first 33 hours but are fasted overnight prior to sacrifice. Indomethacin is suspended (4 mg/ml) in a 1.5% starch-phosphate buffer solution (SPBS). 1,9-dioxo-11α,16-dihydroxy-16-methyl-1-hydroxymethyl-13-transprostene is dissolved at 10 mg/ml in ethanol and then diluted in SPBS to 0.1 mg/ml or to a lower concentration as required. The indomethacin suspension is injected subcutaneously (10 mg/kg) and the prostaglandin suspension is given by gavage (0.5 mg/kg or less) b.i.d. on day 0 and 1. Rats receive only one dose of prostaglandin and indomethacin on day 2 and 6 hours later are killed with chloroform. The stomachs are dissected, opened along the greater curvature, and rinsed briefly in tap water. They are then spread, mucosal surface facing upward and pinned onto uniform size corks (2.5 inch diameter) individually numbered on the back. The identification number for each stomach is unknown to the investigator and the stomachs are randomly graded according to the following scheme:
(§6) ^a Treatment is B.I.D. on days 0 and 1, and once on day 2, six hours
(§7) prior to sacrifice for scoring.

[8] = tested on: indomethacin-induced intestinal ulcers; format: in vivo, rat; conditions: indomethacin-only treatment, 10 mg/kg subcut.
Procedure: as §5
Intestines are also removed and examined for the presence of ulcers, which are graded according to the scheme outlined below.
1--Mucosa thin, petechial hemorrhage
2--"Blow-outs", when intestine inflated with air
3--Few ulcers. Gut more fragile than normal, tears along line of mesentery attachements when removed
4--Many large perforating lesions. Adhesions. Gut hemorrhagic and very fragile. Tears readily and cannot be removed intact. Graded in situ.
as §6, §7

[9] = tested on: indomethacin-induced gastric ulcers; format: in vivo, rat; conditions: indomethacin-only treatment, 10 mg/kg subcut.
Procedure: as §5
1--Petechial hemorrhage, or pin-point ulcers
2--One or two small ulcers or hemorrhagic erosions
3--Many areas of hemorrhage erosion or ulcers, a few large
4--Massive areas of hemorrhagic erosion or many ulcers, mainly large
as §6, §7

[10] = Cavia porcellus, read-out: ED50
[11] = 5 min, 5 min. after drug administration
[12] = 0.5 h, 30 min. after drug administration
[13] = 1 h, 60 min. after drug administration

| SMILES | ED50 [1, 10] [µg/kg] | ED50 [2, 10] [µg/kg] | ED50 [4, 10] [µg/kg] | inhibition at 3200 µg/mL [3, 11] [%] | inhibition at 3200 µg/mL [3, 12] [%] | inhibition at 3200 µg/mL [3, 13] [%] | further results |
| --- | --- | --- | --- | --- | --- | --- | --- |
| CCCCCC(C)(O)/C=C/C1CCC(=O)C1CCCCCCC(=O)CO (stereo not drawn) [1,9-dioxo-15α-hydroxy-15-methyl-1-hydroxymethyl-13-trans-prostene] | – | – | – | – | – | – | ED50 [1]: 0.293 µg/kg; ED50 [2]: 0.373 µg/kg; % Inhibition of pilocarpine induced spasm ([3]; 5 min. after drug administration): 37%; % Inhibition of pilocarpine induced spasm ([3]; 30 min. after drug administration): 30%; % Inhibition of pilocarpine induced spasm ([3]; 60 min. after drug administration): 30%; ED50 [4]: 0.288 µg/kg |
| CCCCC1(C(O)/C=C/C2C(O)CC(=O)C2C/C=C\CCCC=O)CCC1 (stereo not drawn) [1,9-dioxo-11α,15α-dihydroxy-16,16-trimethylene-5-cis,13-trans-prostadiene] | – | – | – | – | – | – | ED50 [1]: 0.995 µg/kg; ED50 [2]: 0.781 µg/kg; ED50 [4]: 1.49 µg/kg |
| CCCCCC(C)(O)CC=CC1C(O)CC(=O)C1CC=CCCCC(=O)CO (stereo not drawn) [1,9-dioxo-11α,16-dihydroxy-16,20-dimethyl-1-hydroxymethyl-13-trans-5-cis-prostadiene] | 19 | 8.8 | 47 | – | – | – | – |
| CCCCCC(O)/C=C/C1CCC(=O)C1CCCCCCC(=O)CO (stereo not drawn) | – | – | – | – | – | – | inhibition of platelet aggregation [5]: shows inhibition of platelet aggregation; inhibition of platelet aggregation [6]: shows inhibition of platelet aggregation |
| CCCCCC(O)C=CC1C(O)CC(=O)C1CCCCCCC(=O)CO (stereo not drawn) [1,9-dioxo-11α,15α-dihydroxy-1-hydroxymethyl-13-trans-prostene] | 3.9 | 0.547 | 0.936 | 80 | 40 | 15 | – |
| CCCCCC(O)CCC1CCC(=O)C1CCCCCCC(=O)CO [l-1,9-dioxo-15(S)-hydroxy-1-hydroxymethyl prostane] | – | 0.471 | 0.89 | 70 | 45 | 30 | – |
| COc1ccc2c(c1)c(CC(=O)O)c(C)n2C(=O)c1ccc(Cl)cc1 [Indomethacin, reference compound] | – | – | – | – | – | – | Hematocrit (Mean ± S.E.M.) [7]: 33.1 ± 2.1; Intestinal Ulcer Score (Mean ± S.E.M.) [8]: 3.7 ± 0.2; Gastric Ulcer Score (Mean ± S.E.M.) [9]: 2.9 ± 0.2 |
| C=CC(O)(CC=CC1C(O)CC(=O)C1CC=CCCCC(=O)CO)CCCC (stereo not drawn) | 2.66 | 0.254 | 0.402 | 80 | 80 | 66 | – |
| CCCCC1(C(O)C=CC2C(O)CC(=O)C2CCCCCCC(=O)CO)CCC1 (stereo not drawn) [1,9-dioxo-11α,15-dihydroxy-1-hydroxymethyl-16,16-trimethylene-13-trans-prostene] | 1.3 | 0.734 | 1.4 | 90 | 75 | 60 | – |
| CCCCC(O)(CC)CC=CC1C(O)CC(=O)C1CC=CCCCC(=O)CO (stereo not drawn) [1,9-dioxo-11α,16-dihydroxy-16-ethyl-1-hydroxymethyl-5-cis-13-trans-prostadiene] | – | – | – | 70 | 50 | 35 | – |
| CCCCCC(C)(O)CC=CC1C(O)CC(=O)C1CCCCCCC(=O)CO (stereo not drawn) [1,9-dioxo-11α,16-dihydroxy-16,20-dimethyl-1-hydroxymethyl-13-trans-prostene] | – | – | – | 55 | 70 | 55 | – |
| CCCCC1(C(O)C=CC2C(O)CC(=O)C2CC=CCCCC(=O)CO)CCC1 (stereo not drawn) [1,9-dioxo-11α,15-dihydroxy-1-hydroxymethyl-16,16-trimethylene-13-trans-5-cis-prostadiene] | – | – | – | 80 | 74 | 68 | – |
| C=CC(O)(CC=CC1C(O)CC(=O)C1CC=CCCCC(=O)COC(C)=O)CCCC (stereo not drawn) [1,9-Dioxo-11α,16-dihydroxy-16-vinyl-1-acetoxymethyl-5-cis-13-trans-prostadiene] | 0.795 | 0.78 | – | 92 | 75 | 55 | – |
| C=CC(O)(CC=CC1C(O)CC(=O)C1CCCCCCC(=O)CO)CCCC (stereo not drawn) [1,9-dioxo-11α,16-dihydroxy-1-hydroxymethyl-16-vinyl-13-trans-prostene] | 1.7 | 0.25 | 0.147 | 90 | 80 | 70 | – |
